Measured values from patent US20250025427A1, “MIXED AMIDE ESTER CONTAINING LIPIDS FOR USE IN LIPID NANOPARTICLES” (Acuitas Therapeutics, Inc., priority 2023, published 2025).

tested on: luciferase protein (FLuc mRNA) expression in liver; assay: Luciferase mRNA in vivo evaluation using lipid nanoparticle compositions; set-up: species or system mice; conditions: LNP with the cationic lipid, 0.3 mg mRNA/kg, tail vein injection, ng luciferase/g liver 4 hours after administration
Protocol: (§1) A lipid of Formula (I), DSPC, cholesterol and PEG-lipid of Formula (II) are solubilized in ethanol at a molar ratio of 50:10:38.5:1.5 or 47.5:10:40.7:1.8. Lipid nanoparticles (LNP) are prepared at a total lipid to mRNA weight ratio of approximately 10:1 to 40:1. Briefly, the mRNA is diluted to 0.2 mg/mL in 10 to 50 mM citrate buffer, pH 4 to 6 or 10 to 25 mM acetate buffer, pH 4 to 6. Syringe pumps are used to mix the ethanolic lipid solution with the mRNA aqueous solution at a ratio of about 1:5 to 1:3 (vol/vol) with total flow rates above 15 mL/min. The ethanol is then removed, and the external buffer replaced with PBS by dialysis. Finally, the lipid nanoparticles are filtered through a 0.2 µm pore sterile filter.
Studies are performed in 6-8-week-old female C57BL/6 mice (Charles River) or 8-10-week-old CD-1 mice (Charles River or Inotiv) according to guidelines established by an institutional animal care committee (ACC) and the Canadian Council on Animal Care (CCAC). Varying doses of mRNA-lipid nanoparticle are systemically administered by tail vein injection and animals euthanized at a specific time point (e.g., 4 hours) post-administration. Liver and spleen are collected in pre-weighed tubes, weights determined, immediately snap frozen in liquid nitrogen, and stored at −80° C. until processing for analysis. […]

Row | Structure (SMILES) | Liver Luc (ng/g) @ 0.3 mg/kg
1 | CCCCCCCCCCN(CCCCCCCCCC)C(=O)CCCCCCCN(C)CCCCCCCC(=O)NCCCCCC(=O)OCC(CCCCCC)CCCCCCCC (stereo not drawn) [Compound I-3, 2-Hexyldecyl 6-(8-((8-(Didecylamino)-8-Oxooctyl)(Methyl)Amino)Octanamido)Hexanoate] | 8191 ± 2369 ng/g

same assay, conditions: LNP with the cationic lipid, 1.0 mg mRNA/kg, tail vein injection, ng luciferase/g liver 4 hours after administration

Row | Structure (SMILES) | Liver Luc (ng/g) @ 1.0 mg/kg
2 | CCCCCCCCCCN(CCCCCCCCCC)C(=O)CCCCCCCN(C)CCCCCCCC(=O)NCCCCCC(=O)OCC(CCCCCC)CCCCCCCC (stereo not drawn) [Compound I-3, 2-Hexyldecyl 6-(8-((8-(Didecylamino)-8-Oxooctyl)(Methyl)Amino)Octanamido)Hexanoate] | 25381 ± 4022 ng/g

tested on: human IgG in mouse serum; assay: Immunoglobulin G (IgG) mRNA in vivo evaluation using lipid nanoparticle compositions; set-up: species or system mice; conditions: LNP with the cationic lipid, 0.3 mg mRNA/kg, tail vein injection, μg IgG/mL serum 24 hours after administration
Protocol: as §1
Studies are performed in 6-8-week-old CD-1/ICR mice (Charles River or Inotiv) according to guidelines established by an institutional animal care committee (ACC) and the Canadian Council on Animal Care (CCAC). Varying doses of mRNA-lipid nanoparticle are systemically administered by tail vein injection and animals euthanized at a specific time point (e.g., 24 hours) post-administration. The whole blood is collected, and the serum subsequentially separated by centrifuging the tubes of the whole blood at 2000×g for 10 minutes at 4° C. and stored at −80° C. until use for analysis.
For immunoglobulin G (IgG) ELISA (Life Diagnostics Human IgG ELISA kit), the serum samples are diluted at 100 to 20,000 folds with 1× diluent solution. 100 μL of diluted serum is dispensed into anti-human IgG coated 96-well plate in duplicate alongside human IgG standards and incubated in a plate shaker at 150 rpm at 25° C. for 45 minutes. The wells are washed 5 times with 1× wash solution using a plate washer (400 μL/well). 100 μL of HRP conjugate is added into each well and incubated in a plate shaker at the same condition above. The wells are washed 5 times again with 1× wash solution using a plate washer (400 μL/well). 100 μL of TMB reagent is added into each well and incubated in a plate shaker at the same condition above. The reaction is stopped by adding 100 μL of Stop solution to each well. The absorbance is read at 450 nm (A450) with a microplate reader. The amount of human IgG in mouse serum is determined by plotting A450 values for the assay standard against human IgG concentration.
Representative compounds of the disclosure shown in Table 2 were formulated using the following molar ratio: 50% cationic lipid/10% distearoylphosphatidylcholine (DSPC)/38.5% Cholesterol/1.5% PEG lipid 2-[2-(ω-methoxy(polyethyleneglycohooo)ethoxy]-N,N-ditetradecylacetamide) or 47.5% cationic lipid/10% DSPC/40.7% Cholesterol/1.8% PEG lipid. Relative activity was determined by measuring the amount of human IgG […]. The activity was compared at a dose of 1.0 or 0.3 mg mRNA/kg and expressed as ng luciferase/g liver measured 4 hours after administration, as described in Example 1 or as μg IgG/mL serum measured 24 hours after administration, as described in Example 2. Compound numbers in Table 2 refer to the compound numbers of Table 1.

Row | Structure (SMILES) | Serum IgG (μg/mL) @ 0.3 mg/kg
3 | CCCCCCCCC(CCCCCC)COC(=O)CCCCCN(CCCCCC)C(=O)CCN(C)CCC(=O)N(CCCCCC)CCCCCC(=O)OCC(CCCCCC)CCCCCCCC (stereo not drawn) [Compound I-48, Bis(2-Hexyldecyl) 6,6′-((3,3′-(Methylazanediyl)Bis(Propanoyl))Bis(Hexylazanediyl))Dihexanoate] | 27.5 ± 12.7 µg/mL
4 | CCCCCCCCC(CCCCCC)COC(=O)CCCCCCN(CCCCCC)C(=O)CCCCCCCN(C)CCCCCCCC(=O)N(CCCCCC)CCCCCCC(=O)OCC(CCCCCC)CCCCCCCC (stereo not drawn) [Compound I-14, Bis(2-Hexyldecyl) 7,7′-((8,8′-(Methylazanediyl)Bis(Octanoyl))Bis(Hexylazanediyl))Diheptanoate] | 33.4 ± 7.7 µg/mL
5 | CCCCCCCCC(CCCCCC)COC(=O)CCCCCCCCCN(CCCCCC)C(=O)CCCCCN(C)CCCCCC(=O)N(CCCCCC)CCCCCCCCCC(=O)OCC(CCCCCC)CCCCCCCC (stereo not drawn) [Compound I-22, Bis(2-Hexyldecyl) 10,10′-((6,6′-(Methylazanediyl)Bis(Hexanoyl))Bis(Hexylazanediyl))Bis(Decanoate)] | 11.9 ± 5.9 µg/mL
6 | CCCCCCCCC(CCCCCC)COC(=O)CCCCCCCCCN(CCCCCC)C(=O)CCCN(C)CCCC(=O)N(CCCCCC)CCCCCCCCCC(=O)OCC(CCCCCC)CCCCCCCC (stereo not drawn) [Compound I-50, Bis(2-Hexyldecyl) 10,10′-((4,4′-(Methylazanediyl)Bis(Butanoyl))Bis(Hexylazanediyl))Bis(Decanoate)] | 11.6 ± 8.2 µg/mL
7 | CCCCCCCCC(CCCCCC)COC(=O)CCCCCN(CCCCCC)C(=O)CCCCCCCN(C)CCCCCCCC(=O)N(CCCCCC)CCCCCC(=O)OCC(CCCCCC)CCCCCCCC (stereo not drawn) [Compound I-25, Bis(2-Hexyldecyl) 6,6′-((8,8′-(Methylazanediyl)Bis(Octanoyl))Bis(Hexylazanediyl))Dihexanoate] | 55.3 ± 24.8 µg/mL
8 | CCCCCCCCCCN(CCCCCC(=O)OCC(CCCCCC)CCCCCCCC)C(=O)CCCCCCCN(C)CCCCCCCC(=O)N(CCCCCCCCCC)CCCCCC(=O)OCC(CCCCCC)CCCCCCCC (stereo not drawn) [Compound I-40, Bis(2-Hexyldecyl) 6,6′-((8,8′-(Methylazanediyl)Bis(Octanoyl))Bis(Decylazanediyl))Dihexanoate] | 13.8 ± 6.0 µg/mL
9 | CCCCCCCCC(CCCCCC)COC(=O)CCCCCN(CCCCCC)C(=O)CCCCN(C)CCCCC(=O)N(CCCCCC)CCCCCC(=O)OCC(CCCCCC)CCCCCCCC (stereo not drawn) [Compound I-19, Bis(2-Hexyldecyl) 6,6′-((5,5′-(Methylazanediyl)Bis(Pentanoyl))Bis(Hexylazanediyl))Dihexanoate] | 12.3 ± 5.2 µg/mL
10 | CCCCCCCCC(CCCCCC)COC(=O)CCCCC(=O)N(CCCCCC)CCCCCCCCN(C)CCCCCCCCN(CCCCCC)C(=O)CCCCC(=O)OCC(CCCCCC)CCCCCCCC (stereo not drawn) [Compound I-45, Bis(2-Hexyldecyl) 6,6′-(((Methylazanediyl)Bis(Octane-8,1-Diyl))Bis(Hexylazanediyl))Bis(6-Oxohexanoate)] | 18.3 ± 4.6 µg/mL
11 | CCCCCCCCC(CCCCCC)COC(=O)CCCCCCCCN(CCCCCC)C(=O)CCCCCN(C)CCCCCC(=O)N(CCCCCC)CCCCCCCCC(=O)OCC(CCCCCC)CCCCCCCC (stereo not drawn) [Compound I-17, Bis(2-Hexyldecyl) 9,9′-((6,6′-(Methylazanediyl)Bis(Hexanoyl))Bis(Hexylazanediyl))Dinonanoate] | 16.0 ± 2.6 µg/mL

same assay, conditions: LNP with the cationic lipid, 1.0 mg mRNA/kg, tail vein injection, μg IgG/mL serum 24 hours after administration

Row | Structure (SMILES) | Serum IgG (μg/mL) @ 1.0 mg/kg
12 | CCCCCCCCC(CCCCCC)COC(=O)CCCCCN(CCCCCC)C(=O)CCCCCCCN(C)CCCCCCCC(=O)N(CCCCCC)CCCCCC(=O)OCC(CCCCCC)CCCCCCCC (stereo not drawn) [Compound I-25, Bis(2-Hexyldecyl) 6,6′-((8,8′-(Methylazanediyl)Bis(Octanoyl))Bis(Hexylazanediyl))Dihexanoate] | 192.4 ± 106.8 µg/mL
